Values of other authors, collected in patent publication US6964965B2, “Substituted pyrazine derivatives” (Pharmacia & Upjohn, priority 2002, dated 2005).

How the values were obtained:
[1] = system: human epidermal keratinocyte cells; conditions: cultured human epidermal keratinocyte cells
CRF = conditions: for effect on the “anxiogenic” effects / actions of CRF in the conflict test: conflict test (operant conflict test)

Structure (SMILES)	keratinocyte cell proliferation promoting effect [1]	effect on the “anxiogenic” effects / actions of CRF in the conflict test (CRF)	behavioral activity of the substance alone in the operant conflict test (CRF; alone, without CRF)
CCN(c1nc(C)cc(N2CC=C(c3cccc(F)c3)CC2)n1)c1ccc(C(C)C)cc1SC [2-[N-(2-methylthio-4-isopropylphenyl)-N-ethylamino]-4-[4-(3-fluorophenyl)-1,2,3,6-tetrahydropyridine-1-yl]-6-methylpyrimidine]	showed keratinocyte cell proliferation promoting effect		
CNC(=O)c1cc2c(cn1)[nH]c1ccccc12 [FG 7142]		enhanced the actions of CRF	
CCOC(=O)c1ncn2c1CN(C)C(=O)c1cc(F)ccc1-2 [Ro 15-1788]		reversed the effects of CRF in a dose-dependent manner	without behavioral activity alone
